SMILES strings stand for the structures.

The values below come from US20060079696A1, “Substituted compounds derived from N-(benzyl)phenylacetamide, preparation and uses” (GENFIT, priority 2004, published 2006).

One assay has as its target T1, hPPARα (Homo sapiens, UniProt Q07869).
T1 construct: fragments of DNA amplified by PCR corresponding to the DEF domains of the human PPARα, PPARγ PPARδ nuclear receptors; expressed in transfected cells; host or cells: COS-7 (monkey kidney fibroblast line)
T1 sequence (Q07869 239-466 limits assumed): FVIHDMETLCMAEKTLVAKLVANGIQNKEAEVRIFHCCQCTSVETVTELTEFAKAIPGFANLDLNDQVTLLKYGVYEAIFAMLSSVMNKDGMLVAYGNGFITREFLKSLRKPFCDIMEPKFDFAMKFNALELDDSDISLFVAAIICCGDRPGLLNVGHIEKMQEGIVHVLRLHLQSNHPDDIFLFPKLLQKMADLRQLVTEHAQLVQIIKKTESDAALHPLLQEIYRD
The experiment in a line: Gal4-hPPARα chimera transactivation in COS-7 cells (luciferase). Conditions: induction factor standardised to an internal reference, read-out: % hGal4-PPAR transactivation (10 μM) alpha. Format: cell-based. In a few lines:
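COS-7 cells transiently transfected with Gal4-DBD/human PPAR DEF-domain chimeras plus Gal4(RE)_TkpGL3 luciferase reporter (1/10 ratio), then exposed 24 h serum-free to compound at 10 μM. Luciferase induction factor over control, normalised to an internal reference per isoform, expressed as percent activation.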

For assay [1], the target named is T2, ATP-dependent potassium channels (K+ATP) (Rattus norvegicus, UniProt Q09429).
T2 construct: the potassium channels derive from a rat's cerebral cortex; tissue CEREP; host or cells: rat cerebral cortex
The experiment in a line: [3H]glibenclamide binding to ATP-dependent potassium channels of rat cerebral cortex. As to conditions: 1 h; 300 nM; specific displacement of [3H]glibenclamide 0.1 nM; read-out: KATP binding (300 nM). In a few lines:
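Rat cerebral cortex membranes incubated 1 h at 22° C with 0.1 nM [3H]glibenclamide; nonspecific binding defined with 1 μM unlabelled glibenclamide. Compounds tested at 3–300 nM; values are percent inhibition of specific binding.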

The next assay has as its system Male Sprague-Dawley rats. The experiment in a line: Glycemia and insulinemia after oral administration in fasted rats. In kind it is in vivo, rat. As to conditions: oral, fasted rat. An excerpt:
In normal animals (as in man), the consequence of the administration of insulinotropic compounds is a significant increase in the plasmatic level of insulin. This induced hyperinsulinemia induces a reduction in glycemia. This example studies the evolution of glycemia and of insulinemia following oral administration of the inventive compounds in rats: the insulinotropic action of the compounds in vivo should induce a significant decrease of glycemia.
Male Sprague-Dawley rats (300-320 g) (CERJ—Le Genest St Isle-France) were used in order to carry out this experiment. The rats were fed with a standard diet of granular material; they had free access to food and drink and were kept in individual, ventilated cages in a 12 hr/12 hr light/dark rhythm. The animals were deprived of food for 16 hours prior to the experiment.
The compound was suspended in an aqueous carboxymethylcellulose solution (Sigma C4888) at 1% containing 0.1% Tween80 (Sigma P8074). The animals of the control group received the vehicle alone. The treated animals received a single administration of the compound (the suspension was administered by gavage at the rate of 10 ml/kg). Each group was made up of 11 animals. A 1st blood sample was taken by puncturing the retro-orbital sinus of the animals under volatile isoflurane anaesthesia: this sample makes up the initial time of the experiment. The substance or the vehicle were immediately administered to the animals by gavage, and blood samples were taken over time.
The animals' glycemia was measured in real time using a glucometer (Glucotrend2-Roche Diagnostic-France). The insulinemias were measured using an ELISA kit (Insulin Elisa Kit—Crystal Chem. USA). The method used was of the ELISA type: plasmatic insulin was specifically bound to anti-insulin monoclonal antibodies immobilised on the microtitration plate; simultaneously, an anti-insulin polyclonal guinea pig antibody was added to the reaction. The revelation of the reaction was guaranteed by an antibody coupled to peroxidase. These antibodies bind specifically to the guinea pig's immunoglobulins. The production of oxidised chromogen causes an increase in absorbance in proportion to the quantity of insulin present in the sample.

T2 sequence (Q09429 whole entry): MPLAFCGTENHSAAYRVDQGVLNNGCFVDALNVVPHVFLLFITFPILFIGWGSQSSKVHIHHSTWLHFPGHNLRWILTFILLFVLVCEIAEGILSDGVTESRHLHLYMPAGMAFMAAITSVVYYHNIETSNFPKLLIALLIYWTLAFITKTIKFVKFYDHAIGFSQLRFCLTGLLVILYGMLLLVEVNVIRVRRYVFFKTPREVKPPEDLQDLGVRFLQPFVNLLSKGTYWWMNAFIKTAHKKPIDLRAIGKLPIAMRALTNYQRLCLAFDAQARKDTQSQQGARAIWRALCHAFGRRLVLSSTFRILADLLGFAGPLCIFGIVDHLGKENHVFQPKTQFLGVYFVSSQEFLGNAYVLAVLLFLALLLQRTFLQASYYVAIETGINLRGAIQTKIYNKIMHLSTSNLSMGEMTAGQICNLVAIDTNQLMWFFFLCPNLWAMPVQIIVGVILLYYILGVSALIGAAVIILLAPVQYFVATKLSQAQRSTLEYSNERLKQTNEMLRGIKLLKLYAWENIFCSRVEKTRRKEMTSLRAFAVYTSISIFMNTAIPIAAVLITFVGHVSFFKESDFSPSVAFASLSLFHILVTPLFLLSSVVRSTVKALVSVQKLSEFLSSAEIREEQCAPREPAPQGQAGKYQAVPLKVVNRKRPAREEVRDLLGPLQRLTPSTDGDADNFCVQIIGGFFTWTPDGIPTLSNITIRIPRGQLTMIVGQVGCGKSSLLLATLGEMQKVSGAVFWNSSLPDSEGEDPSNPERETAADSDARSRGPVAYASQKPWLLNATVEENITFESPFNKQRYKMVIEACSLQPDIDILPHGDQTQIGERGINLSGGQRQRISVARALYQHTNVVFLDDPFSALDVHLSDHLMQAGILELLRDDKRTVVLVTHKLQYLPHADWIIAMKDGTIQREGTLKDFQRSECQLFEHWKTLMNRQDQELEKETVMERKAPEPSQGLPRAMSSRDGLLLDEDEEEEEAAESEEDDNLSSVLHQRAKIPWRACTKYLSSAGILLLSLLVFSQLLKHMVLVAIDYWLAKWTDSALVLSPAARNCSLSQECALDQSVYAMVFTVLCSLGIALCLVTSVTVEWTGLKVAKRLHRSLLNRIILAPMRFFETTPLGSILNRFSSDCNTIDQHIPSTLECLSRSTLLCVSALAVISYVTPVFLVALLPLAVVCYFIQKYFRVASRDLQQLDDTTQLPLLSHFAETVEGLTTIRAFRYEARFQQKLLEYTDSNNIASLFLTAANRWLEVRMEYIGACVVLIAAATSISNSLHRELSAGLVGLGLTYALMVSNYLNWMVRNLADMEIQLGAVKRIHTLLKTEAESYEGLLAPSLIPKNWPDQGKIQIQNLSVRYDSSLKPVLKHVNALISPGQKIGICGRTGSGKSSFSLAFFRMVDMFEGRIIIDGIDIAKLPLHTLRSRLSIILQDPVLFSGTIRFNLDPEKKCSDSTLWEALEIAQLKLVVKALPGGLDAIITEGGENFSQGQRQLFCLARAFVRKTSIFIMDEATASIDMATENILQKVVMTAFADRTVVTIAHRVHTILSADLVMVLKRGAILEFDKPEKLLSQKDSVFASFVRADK
T2 sequence (P70673 whole entry partner): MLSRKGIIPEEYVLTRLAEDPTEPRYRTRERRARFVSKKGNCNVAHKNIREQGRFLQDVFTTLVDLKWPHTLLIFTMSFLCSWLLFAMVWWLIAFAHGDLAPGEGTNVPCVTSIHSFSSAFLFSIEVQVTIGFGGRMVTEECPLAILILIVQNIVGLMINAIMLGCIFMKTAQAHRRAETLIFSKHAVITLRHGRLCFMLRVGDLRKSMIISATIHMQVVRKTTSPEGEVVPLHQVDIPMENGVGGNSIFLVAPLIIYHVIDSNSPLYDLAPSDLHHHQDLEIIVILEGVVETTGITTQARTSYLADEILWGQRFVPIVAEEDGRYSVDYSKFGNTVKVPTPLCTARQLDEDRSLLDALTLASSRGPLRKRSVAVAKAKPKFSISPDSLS

With `CCCCC(NC(=O)Cc1ccc(OC(C)(C)C(=O)NS(C)(=O)=O)cc1)c1ccccc1N1CCCCC1` (stereo not shown) [Compound 52, N-[methylsulfonyl]-2-[4-[1-(1-(2-(1-piperidinyl)phenyl)pentyl)aminocarbonylmethyl]phenoxy]-2-methylpropanamide], the activation at 10 µM on hPPARα turned out to be 42%. Also, in assay [1], the inhibition at 0.3 µM is 83%. Besides, the “decrease in glycemia between T=0 and T=120 min” value in the assay on Male Sprague-Dawley rats (50 mpk) is reported as “no measurable effect”; in the assay on Male Sprague-Dawley rats (500 mpk), 19%.
